The values that follow come from publication PMC9825998 (The Journal of Physiology, 2022).

Like-named read-outs stand apart in the source and are kept apart here.

Assay [1] has as its target T1, Kir6.2‐K39A+SUR1 (Homo sapiens, UniProt Q14654, K39A).
T1 construct: expressed in transfected cells; host or cells: HEK293T
Set-up: method as in previous submission of this manuscript. Particulars: construct not specified further, quoted by Referee #4, ref previous submission of this manuscript; cited from earlier work.

The next assay concerns the target T2, Kir6.2‐K39E+SUR1 (Homo sapiens, UniProt Q14654, K39E).
T2 construct: expressed in transfected cells; host or cells: HEK293T
Description: Nucleotide inhibition of KATP currents in inside-out patches from HEK293T cells, Hill fit. Type of assay: biochemical. The method, then: (§1) Human Kir6.2 and SUR1 were subcloned into pCGFP_EU [green fluorescent proten (GFP)‐tagged constructs] and pcDNA4/TO, respectively. Site‐directed mutagenesis and amber stop codons were introduced using the QuikChange XL system (Stratagene, San Diego, CA, USA) and verified by sequencing (DNA Sequencing and Services, Dundee, UK), as previously described (Usher et al., [2020]). HEK293T cells were grown in Dulbecco's modified Eagle's medium (DMEM; Sigma) with the addition of 10% fetal bovine serum, 100 U ml^−1 penicillin and 100 μg ml^−1 streptomycin (Thermo Fisher Scientific; Waltham, MA, USA) at 37°C, 5:95 CO2:air. Cells were seeded in T25 flasks for 24 h, before transfection with TransIT‐LT1 (Mirus Bio LLC, Madison, WI, USA). Protein expression and trafficking to the plasma membrane were optimized by including 300 μM tolbutamide in the transfection media (Yan et al., [2007]). 3‐(6‐Acetylnaphthalen‐2‐ylamino)‐2‐aminopropanoic acid (ANAP)‐tagged Kir6.2 constructs were cultured in the presence of 20 μM ANAP (free acid; AsisChem, Waltham, MA, USA), and 48 h post‐transfection the cells were re‐plated onto either poly‐D‐lysine‐coated glass‐bottomed FluoroDishes (FD35‐PDL‐100; World Precision Instruments) or poly‐L‐lysine‐coated 35 mm Petri dishes (Corning). pCDNA4/TO and pANAP were obtained from Addgene. peRF1‐E55D (Homo sapiens) and pCGFP_EU (Aequorea victoria) were kind gifts from the Chin Laboratory (MRC Laboratory of Molecular Biology, Cambridge, UK) and Gouaux Laboratory (Vollum Institute, Portland, OR, USA), respectively.
(§2) Extracellular (pipette) solutions contained (mM): 140 KCl, 1 EGTA and 10 Hepes (pH adjusted to 7.3 with KOH). The intracellular (bath) solutions contained (mM): 140 KCl, 1 EDTA, 1 EGTA, 10 Hepes (pH adjusted to 7.3 with KOH). Inside‐out patches were excised from transfected HEK293T cells using borosilicate glass pipettes (GC150F‐15; Harvard Apparatus, Holliston, MA, USA) pulled to a resistance of 1–3 MΩ. Data were acquired at a holding potential of −60 mV using an Axopatch 200B amplifier and a Digidata 1322A digitizer run through pClamp 9 software (Molecular Devices, San Jose, CA, USA).

Assay [2] has as its target T1, Kir6.2‐K39A+SUR1. Described as above. It counts as biochemical. The method, then: as §1, §2
A further assay has as its target T3, Kir6.2+SUR1 (Homo sapiens, UniProt Q14654).
T3 construct: expressed in transfected cells; host or cells: HEK293T
Described as above. Type of assay: biochemical. On the procedure:
as §1, §2

The target in assay [3] is T4, Kir6.2‐K39R+SUR1 (Homo sapiens, UniProt Q14654, K39R).
T4 construct: expressed in transfected cells; host or cells: HEK293T
T4 sequence (Q14654 whole entry K39R): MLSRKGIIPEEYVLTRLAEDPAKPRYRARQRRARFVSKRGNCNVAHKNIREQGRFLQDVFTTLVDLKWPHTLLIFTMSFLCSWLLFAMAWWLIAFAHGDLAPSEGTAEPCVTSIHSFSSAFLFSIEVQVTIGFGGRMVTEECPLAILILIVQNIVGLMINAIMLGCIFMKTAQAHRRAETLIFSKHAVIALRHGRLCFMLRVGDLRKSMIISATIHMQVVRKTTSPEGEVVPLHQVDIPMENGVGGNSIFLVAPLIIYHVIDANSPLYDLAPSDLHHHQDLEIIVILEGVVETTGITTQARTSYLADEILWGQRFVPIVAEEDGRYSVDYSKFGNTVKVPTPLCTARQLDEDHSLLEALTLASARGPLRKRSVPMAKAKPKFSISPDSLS
T4 sequence (Q09428 whole entry partner): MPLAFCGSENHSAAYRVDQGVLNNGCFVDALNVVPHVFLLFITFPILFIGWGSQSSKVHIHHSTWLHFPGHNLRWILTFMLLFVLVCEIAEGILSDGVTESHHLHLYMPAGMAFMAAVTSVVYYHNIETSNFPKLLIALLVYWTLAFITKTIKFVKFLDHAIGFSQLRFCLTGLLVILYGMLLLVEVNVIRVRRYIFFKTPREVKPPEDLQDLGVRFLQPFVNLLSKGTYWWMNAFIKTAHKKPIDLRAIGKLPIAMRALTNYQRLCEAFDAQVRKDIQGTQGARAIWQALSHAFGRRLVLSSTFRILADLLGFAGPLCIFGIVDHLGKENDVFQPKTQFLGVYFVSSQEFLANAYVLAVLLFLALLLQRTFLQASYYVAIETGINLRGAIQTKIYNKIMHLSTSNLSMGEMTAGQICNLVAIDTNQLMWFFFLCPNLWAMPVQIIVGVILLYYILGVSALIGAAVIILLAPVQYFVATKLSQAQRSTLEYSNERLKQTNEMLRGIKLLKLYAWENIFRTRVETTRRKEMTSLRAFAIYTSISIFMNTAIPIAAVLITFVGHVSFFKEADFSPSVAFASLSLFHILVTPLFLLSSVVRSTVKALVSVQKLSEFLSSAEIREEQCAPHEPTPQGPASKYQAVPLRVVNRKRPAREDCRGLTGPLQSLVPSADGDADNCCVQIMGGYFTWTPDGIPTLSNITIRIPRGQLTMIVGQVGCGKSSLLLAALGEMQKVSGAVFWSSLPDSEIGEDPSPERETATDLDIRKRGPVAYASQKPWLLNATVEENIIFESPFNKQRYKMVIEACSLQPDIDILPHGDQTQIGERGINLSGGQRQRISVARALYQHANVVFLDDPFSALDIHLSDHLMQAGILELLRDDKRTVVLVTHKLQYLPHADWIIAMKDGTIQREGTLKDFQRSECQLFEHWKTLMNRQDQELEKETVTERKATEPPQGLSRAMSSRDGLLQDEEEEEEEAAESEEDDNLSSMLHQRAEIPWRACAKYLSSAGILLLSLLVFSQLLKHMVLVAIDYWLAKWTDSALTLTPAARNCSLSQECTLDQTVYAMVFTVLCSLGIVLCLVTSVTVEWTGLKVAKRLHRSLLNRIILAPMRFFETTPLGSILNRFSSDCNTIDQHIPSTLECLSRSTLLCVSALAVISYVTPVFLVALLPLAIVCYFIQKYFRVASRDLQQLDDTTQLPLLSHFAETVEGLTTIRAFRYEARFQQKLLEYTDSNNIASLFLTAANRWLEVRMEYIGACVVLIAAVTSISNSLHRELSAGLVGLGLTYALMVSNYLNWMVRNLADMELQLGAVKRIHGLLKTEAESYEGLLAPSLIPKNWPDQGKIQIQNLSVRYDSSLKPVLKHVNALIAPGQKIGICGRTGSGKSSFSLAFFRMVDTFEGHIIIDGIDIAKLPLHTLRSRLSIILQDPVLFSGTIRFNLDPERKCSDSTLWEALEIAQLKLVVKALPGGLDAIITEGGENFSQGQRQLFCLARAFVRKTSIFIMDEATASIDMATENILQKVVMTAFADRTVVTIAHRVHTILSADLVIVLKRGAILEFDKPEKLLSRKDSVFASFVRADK
The assay is described as above. Type of assay: biochemical. On the procedure: as §1, §2

Assay [4] deals with T4, Kir6.2‐K39R+SUR1. Also noted: method as in previous submission of this manuscript. As to conditions: construct not specified further, quoted by Referee #4, ref previous submission of this manuscript; cited from earlier work.

T1 sequence (Q14654 whole entry K39A): as the sequence (Q14654 whole entry K39R) above, with R39A counted along it
T1 sequence (Q09428 whole entry partner): as the sequence (Q09428 whole entry partner) above
T2 sequence (Q14654 whole entry K39E): as the sequence (Q14654 whole entry K39R) above, with R39E counted along it
T2 sequence (Q09428 whole entry partner): as the sequence (Q09428 whole entry partner) above
T3 sequence (Q14654 whole entry): as the sequence (Q14654 whole entry K39R) above, with R39K counted along it
T3 sequence (Q09428 whole entry partner): as the sequence (Q09428 whole entry partner) above

For the compound `Nc1ncnc2c1ncn2[C@@H]1O[C@H](COP(=O)(O)OP(=O)(O)OP(=O)(O)O)[C@H]2OC3(O[C@H]21)C([N+](=O)[O-])=CC(=[N+]([O-])[O-])C=C3[N+](=O)[O-]` (stereo partly drawn) [TNP‐ATP, trinitrophenyl adenosine triphosphate], the IC50 was 13.2 µM on Kir6.2‐K39A+SUR1 [1]; 11.8 µM against Kir6.2‐K39E+SUR1; 11 µM at Kir6.2‐K39A+SUR1 [2]; 1.08 µM at Kir6.2+SUR1; 2.48 µM against Kir6.2‐K39R+SUR1 [3]; 2.62 µM on Kir6.2‐K39R+SUR1 [4].
